In ChEMBL document CHEMBL2434921, “New synthetic aliphatic sulfonamido-quaternary ammonium salts as anticancer chemotherapeutic agents” (2013):
Blank lines part the entries; values can stand above or below the compound they belong to. Calls of active or inactive are those of the source. The calls are words filed in the database; no cut-off is given here.

Tests used:
MDA-MB-231 [1] = experiment: Growth inhibition of human MDA-MB-231 cells after 48 hrs by SRB assay; format: functional; settings: MDA-MB-231, 48 h
MDA-MB-231 [2] = experiment: Growth of human MDA-MB-231 cells at 3 uM after 48 hrs by SRB assay; values are per cent of control; settings: MDA-MB-231, 48 h
HCT-15 [3] = experiment: Growth inhibition of human HCT15 cells at 0.1 uM after 48 hrs by SRB assay; values are per cent of control; settings: HCT-15, 48 h
NUGC-3 [4] = experiment: Growth of human NUGC3 cells at 1 uM after 48 hrs by SRB assay; settings: NUGC-3, 48 h
NUGC-3 [5] = experiment: Growth of human NUGC3 cells at 0.3 uM after 48 hrs by SRB assay; settings: NUGC-3, 48 h
ACHN [6] = experiment: Growth inhibition of human ACHN cells after 48 hrs by SRB assay; format: functional
HCT-15 [7] = experiment: Growth of human HCT15 cells at 3 uM after 48 hrs by SRB assay; settings: HCT-15, 48 h
PC-3 [8] = experiment: Growth of human PC3 cells at 10 uM after 48 hrs by SRB assay; settings: PC-3, 48 h
NCI-H23 [9] = experiment: Growth inhibition of human NCI-H23 cells at 0.1 uM after 48 hrs by SRB assay; values are per cent of control; settings: NCI-H23, 48 h
NUGC-3 [10] = experiment: Growth of human NUGC3 cells at 0.1 uM after 48 hrs by SRB assay; settings: NUGC-3, 48 h
NUGC-3 [11] = experiment: Growth inhibition of human NUGC3 cells at 10 uM after 48 hrs by SRB assay; values are per cent of control; settings: NUGC-3, 48 h
PC-3 [12] = experiment: Growth inhibition of human PC3 cells after 48 hrs by SRB assay; format: functional; settings: PC-3, 48 h
MDA-MB-231 [13] = experiment: Growth inhibition of human MDA-MB-231 cells at 0.3 uM after 48 hrs by SRB assay; values are per cent of control; settings: MDA-MB-231, 48 h
ACHN [14] = experiment: Growth of human ACHN cells at 0.1 uM after 48 hrs by SRB assay
PC-3 [15] = experiment: Growth inhibition of human PC3 cells at 0.1 uM after 48 hrs by SRB assay; values are per cent of control; settings: PC-3, 48 h
ACHN [16] = experiment: Growth inhibition of human ACHN cells at 3 uM after 48 hrs by SRB assay; values are per cent of control
NUGC-3 [17] = experiment: Growth inhibition of human NUGC3 cells at 3 uM after 48 hrs by SRB assay; values are per cent of control; settings: NUGC-3, 48 h
PC-3 [18] = experiment: Growth inhibition of human PC3 cells at 1 uM after 48 hrs by SRB assay; values are per cent of control; settings: PC-3, 48 h
HCT-15 [19] = experiment: Growth of human HCT15 cells at 0.3 uM after 48 hrs by SRB assay; settings: HCT-15, 48 h
NCI-H23 [20] = experiment: Growth inhibition of human NCI-H23 cells after 48 hrs by SRB assay; format: functional; settings: NCI-H23, 48 h
MDA-MB-231 [21] = experiment: Growth of human MDA-MB-231 cells at 10 uM after 48 hrs by SRB assay; settings: MDA-MB-231, 48 h
ACHN [22] = experiment: Growth of human ACHN cells at 10 uM after 48 hrs by SRB assay
PC-3 [23] = experiment: Growth inhibition of human PC3 cells at 3 uM after 48 hrs by SRB assay; values are per cent of control; settings: PC-3, 48 h
NCI-H23 [24] = experiment: Growth inhibition of human NCI-H23 cells at 1 uM after 48 hrs by SRB assay; values are per cent of control; settings: NCI-H23, 48 h
NUGC-3 [25] = experiment: Growth inhibition of human NUGC3 cells after 48 hrs by SRB assay; format: functional; settings: NUGC-3, 48 h
[26] = target: Rho-related GTP-binding protein RhoB (Homo sapiens) (UniProt P62745); experiment: Transactivation of RhoB (unknown origin) transfected in human HeLa cells at 5 uM measured over 10 secs by dual luciferase reporter gene assay; format: cell-based
Rho-related GTP-binding protein RhoB (Homo sapiens), sequence (P62745 whole entry): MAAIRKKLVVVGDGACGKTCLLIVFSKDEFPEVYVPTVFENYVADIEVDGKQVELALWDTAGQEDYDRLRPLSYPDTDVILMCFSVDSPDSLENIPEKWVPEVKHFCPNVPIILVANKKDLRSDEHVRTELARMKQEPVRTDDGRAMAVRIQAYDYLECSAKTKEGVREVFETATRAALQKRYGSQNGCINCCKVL

HCT-15 [27] = experiment: Growth inhibition of human HCT15 cells at 10 uM after 48 hrs by SRB assay; values are per cent of control; settings: HCT-15, 48 h
NCI-H23 [28] = experiment: Growth of human NCI-H23 cells at 0.3 uM after 48 hrs by SRB assay; settings: NCI-H23, 48 h
MDA-MB-231 [29] = experiment: Growth of human MDA-MB-231 cells at 1 uM after 48 hrs by SRB assay; settings: MDA-MB-231, 48 h
HCT-15 [30] = experiment: Growth inhibition of human HCT15 cells at 1 uM after 48 hrs by SRB assay; values are per cent of control; settings: HCT-15, 48 h
NCI-H23 [31] = experiment: Growth of human NCI-H23 cells at 10 uM after 48 hrs by SRB assay; settings: NCI-H23, 48 h
HCT-15 [32] = experiment: Growth inhibition of human HCT15 cells after 48 hrs by SRB assay; format: functional; settings: HCT-15, 48 h
MDA-MB-231 [33] = experiment: Growth of human MDA-MB-231 cells at 0.1 uM after 48 hrs by SRB assay; settings: MDA-MB-231, 48 h
PC-3 [34] = experiment: Growth inhibition of human PC3 cells at 0.3 uM after 48 hrs by SRB assay; values are per cent of control; settings: PC-3, 48 h
ACHN [35] = experiment: Growth inhibition of human ACHN cells at 1 uM after 48 hrs by SRB assay; values are per cent of control
ACHN [36] = experiment: Growth of human ACHN cells at 0.3 uM after 48 hrs by SRB assay
NCI-H23 [37] = experiment: Growth inhibition of human NCI-H23 cells at 3 uM after 48 hrs by SRB assay; values are per cent of control; settings: NCI-H23, 48 h

- GI50 (MDA-MB-231 [1]): 0.75 µM
- GI50 (ACHN [6]): 0.54 µM
- GI50 (PC-3 [12]): 0.22 µM
- GI50 (NCI-H23 [20]): 0.38 µM
- Activity [26]: Active
- GI50 (HCT-15 [32]): 1.27 µM
SMILES: CCCCCCCCCCCCCCS(=O)(=O)N(C)CCC[N+](C)(C)CC
- growth, % of control at 3 µM (MDA-MB-231 [2]): 32.1%
- growth, % of control at 0.1 µM (HCT-15 [3]): 106%
- growth, % of control at 1 µM (NUGC-3 [4]): 7.9%
- growth, % of control at 0.3 µM (NUGC-3 [5]): 46.3%
- growth, % of control at 3 µM (HCT-15 [7]): 42.2%
- growth, % of control at 10 µM (PC-3 [8]): -31.6%
- growth, % of control at 0.1 µM (NCI-H23 [9]): 96.4%
- growth, % of control at 0.1 µM (NUGC-3 [10]): 75.5%
- growth, % of control at 10 µM (NUGC-3 [11]): -18.3%
- growth, % of control at 0.3 µM (MDA-MB-231 [13]): 91.4%
- growth, % of control at 0.1 µM (ACHN [14]): 87.9%
- growth, % of control at 0.1 µM (PC-3 [15]): 84.9%
- growth, % of control at 3 µM (ACHN [16]): 31.4%
- growth, % of control at 3 µM (NUGC-3 [17]): -12.5%
- growth, % of control at 1 µM (PC-3 [18]): 14.6%
- growth, % of control at 0.3 µM (HCT-15 [19]): 87.8%
- growth, % of control at 10 µM (MDA-MB-231 [21]): 7.1%
- growth, % of control at 10 µM (ACHN [22]): 16.9%
- growth, % of control at 3 µM (PC-3 [23]): -17%
- growth, % of control at 1 µM (NCI-H23 [24]): 38.4%
- GI50 (NUGC-3 [25]): 0.13 µM
- growth, % of control at 10 µM (HCT-15 [27]): 23%
- growth, % of control at 0.3 µM (NCI-H23 [28]): 79.8%
- growth, % of control at 1 µM (MDA-MB-231 [29]): 55.2%
- growth, % of control at 1 µM (HCT-15 [30]): 68.9%
- growth, % of control at 10 µM (NCI-H23 [31]): -16.9%
- growth, % of control at 0.1 µM (MDA-MB-231 [33]): 95.9%
- growth, % of control at 0.3 µM (PC-3 [34]): 68.3%
- growth, % of control at 1 µM (ACHN [35]): 41.7%
- growth, % of control at 0.3 µM (ACHN [36]): 78.5%
- growth, % of control at 3 µM (NCI-H23 [37]): 3%

- GI50 (MDA-MB-231 [1]): 1.8 µM
- GI50 (ACHN [6]): 1.39 µM
- GI50 (PC-3 [12]): 0.46 µM
- GI50 (NCI-H23 [20]): 0.73 µM
- Activity [26]: Active
- GI50 (HCT-15 [32]): 1.71 µM
SMILES: C=CC[N+](C)(C)CCN(C)S(=O)(=O)CCCCCCCCCCCCCC
- growth, % of control at 3 µM (MDA-MB-231 [2]): 49.7%
- growth, % of control at 0.1 µM (HCT-15 [3]): 90.5%
- growth, % of control at 1 µM (NUGC-3 [4]): 73%
- growth, % of control at 0.3 µM (NUGC-3 [5]): 97.1%
- growth, % of control at 3 µM (HCT-15 [7]): 49.9%
- growth, % of control at 10 µM (PC-3 [8]): -22.9%
- growth, % of control at 0.1 µM (NCI-H23 [9]): 78.2%
- growth, % of control at 0.1 µM (NUGC-3 [10]): 91.6%
- growth, % of control at 10 µM (NUGC-3 [11]): -8.4%
- growth, % of control at 0.3 µM (MDA-MB-231 [13]): 107%
- growth, % of control at 0.1 µM (ACHN [14]): 92.6%
- growth, % of control at 0.1 µM (PC-3 [15]): 86.7%
- growth, % of control at 3 µM (ACHN [16]): 45.7%
- growth, % of control at 3 µM (NUGC-3 [17]): 19.3%
- growth, % of control at 1 µM (PC-3 [18]): 48.6%
- growth, % of control at 0.3 µM (HCT-15 [19]): 91.6%
- growth, % of control at 10 µM (MDA-MB-231 [21]): 20.2%
- growth, % of control at 10 µM (ACHN [22]): -36.7%
- growth, % of control at 3 µM (PC-3 [23]): 8.4%
- growth, % of control at 1 µM (NCI-H23 [24]): 70.8%
- GI50 (NUGC-3 [25]): 0.83 µM
- growth, % of control at 10 µM (HCT-15 [27]): 22.6%
- growth, % of control at 0.3 µM (NCI-H23 [28]): 80.4%
- growth, % of control at 1 µM (MDA-MB-231 [29]): 99.4%
- growth, % of control at 1 µM (HCT-15 [30]): 81.8%
- growth, % of control at 10 µM (NCI-H23 [31]): -9.2%
- growth, % of control at 0.1 µM (MDA-MB-231 [33]): 88%
- growth, % of control at 0.3 µM (PC-3 [34]): 83%
- growth, % of control at 1 µM (ACHN [35]): 80.3%
- growth, % of control at 0.3 µM (ACHN [36]): 101%
- growth, % of control at 3 µM (NCI-H23 [37]): 24%
